For 4 molecules, Sleeping time results are on record in ChEMBL document CHEMBL1134866, “Design, synthesis, and biological evaluation of novel, centrally-acting thyrotropin-releasing hormone analogues” (2002).

In the assay the test system is Mus musculus. As to the kind of experiment: Compound was intravenously injected into Swiss Webstar mice tail vein, the sleeping time was recorded as the time elapsed from the loss of righting reflex. The assay is classed as functional.

Structures are written as SMILES.

Consider `NC(=O)C1=CN(CCC[C@H](NC(=O)[C@@H]2CCC(=O)N2)C(=O)N2CCC[C@H]2C(N)=O)C=CC1`, for which the Sleeping time was roughly 59 min.
The molecule `NC(=O)C1=CN(CCCCC(NC(=O)[C@@H]2CCC(=O)N2)C(=O)N2CCC[C@H]2C(N)=O)C=CC1` (some centres undefined) came in with a Sleeping time of roughly 47 min.
Consider `NC(=O)C1=CN(C[C@H](NC(=O)[C@@H]2CCC(=O)N2)C(=O)N2CCC[C@H]2C(N)=O)C=CC1`, for which the Sleeping time is 19.3 min.
For `NC(=O)C1=CN(CCC(NC(=O)[C@@H]2CCC(=O)N2)C(=O)N2CCC[C@H]2C(N)=O)C=CC1` (some centres undefined), the Sleeping time is given as roughly 45 min.
